Measurements: a melting point compilation (Tetko et al.; mined from patent text by program, amines drawn as free bases though some values may be those of a salt)

melting point | SMILES
181 to 183 °C | CCCCc1nc(Cl)c(C=O)n1Cc1ccc(-c2ccccc2-c2nc(=O)o[nH]2)cc1
82 to 83 °C | COCCOCCOc1ccc(C2=N[C@@](C)(C(=O)O)CS2)c(O)c1
> 260 °C | N#Cc1cnc2sc(C#Cc3ccccn3)cc2c1Nc1ccc2[nH]ccc2c1
176 °C | CC(C)n1c(=O)n(C(=O)NCC2CCN(CC3(C(=O)O)CCOCC3)CC2)c2ccccc21
67 to 68 °C | CCCCCC1CC=C(c2ccc(Br)cc2)CC1 (configuration not stated)
164 °C | CCC(CC)(CC(=O)Nc1cccc(OCc2ccc3ccc(C(C)=O)cc3n2)c1)C(=O)O
150 °C | CCN(CC)S(=O)(=O)c1ccccc1S(=O)(=O)N=C(Nc1nc(OC)nc(OC)n1)SC
82 to 84 °C | CN(C)CCCNC(=O)CCCCCCCCCCCNC(N)=NC(=O)c1nc(Cl)c(N)nc1N
181 to 182 °C | CC(C)Cn1nnc2c3ncnc-3c3ccncc3n21
169 to 170 °C | COC(=O)c1nc(-c2ccc(Cl)c(OC)c2F)c(F)c(N)c1Cl
87 to 88 °C | CCCCCc1c(C(C)C)nc(C(C)C)c(CO)c1-c1ccc(CC)cc1
> 200 °C | CCOC(=O)CC[C@H](NC(=O)c1ccc(C=Cc2cnc3nc(NC(C)=O)nc(O)c3c2)cc1)C(=O)OCC
141 to 143 °C | C=CCc1c(N2C(=O)C3=C(CCCC3)C2=O)ccc(C)c1O
185 to 188 °C | CCn1cc(C(=O)O)c(=O)c2cc(F)c(N3CCOC(CN(C)C)C3)c(F)c21 (configuration not stated)
128 to 130 °C | Nc1ccc(C(=O)c2ccccc2F)cc1
160 to 170 °C | CC(=O)OC[C@H]1O[C@@H](c2ccc(C)c(Cc3ccc(-c4ccc(F)cc4)s3)c2)[C@H](OC(C)=O)[C@@H](OC(C)=O)[C@@H]1OC(C)=O
236 °C | CCc1cc(C(=O)Nc2cc(Oc3ccc4nc(NC(=O)C5CC5)cn4n3)ccc2F)n(C)n1
194 to 195 °C | Nc1nc(N2CCC2)c2ncn(C3CC(O)C(CO)C3)c2n1 (single isomer, unassigned; (+))
243 to 244 °C | Cc1cc(-c2nc3c(C)ccnn3c2-c2ccnc(NC(=O)c3ccc(F)cc3)c2)ccc1F
106 to 107 °C | CC(=O)N1CCCCc2ccc(C(=O)CCCl)cc21
166 to 168 °C | c1ccc(Oc2nc(Oc3ccccc3)nc(N3CCOCC3)n2)cc1
189 °C | CCNC(=O)N1c2ccccc2-c2noc3c2C1CCC3 (configuration not stated)
166 to 169 °C | CCOC(=O)c1ccc(NC(=O)C=C(c2ccccc2)c2ccccc2)cc1
133 to 134 °C | Nc1ccc2c(c1)C(NC(=O)C(F)(F)F)CC2 (configuration not stated)

melting point | SMILES
71 to 73 °C | C=CC1(C)OC(=O)c2ccc(Oc3ccc(C(F)(F)F)cc3Cl)cc21 (configuration not stated)
205 to 206 °C | CC(O)=C(C#N)C(=O)Nc1ccc(S(C)(=O)=O)cc1
194 to 196 °C | CCCOc1ccc(Nc2c([N+](=O)[O-])ccc(Cl)c2C(=O)O)cc1
224 to 225 °C | CCCc1nccn1-c1nc(Cl)nc2nc[nH]c12
> 230 °C | CSc1nn2c(N)cc(C)nc2c1S(=O)(=O)c1cccs1
157 to 162 °C | Nc1cccc(OCCCN2C(=O)c3ccccc3C2=O)c1
242 to 244 °C | CCCCc1nc2c(N)nc3ccccc3c2n1CCCC(=NO)c1ccccc1
60 to 64 °C | CC(=O)Oc1ccc(C(=O)c2ccc(C)c(OC(C)=O)c2)cc1
42 to 44 °C | CCCC(=O)c1ccc(OC)c(Cl)c1Cl
120 to 125 °C | O=C(NCc1ccc(F)cc1)c1sc2ccccc2c1Br
95 to 97 °C | CCOc1ccccc1OC(Cc1ccccc1)C1=NCCN1 (configuration not stated)
94 to 94.6 °C | C#Cc1cc2c(cc1C=O)C(C)(C)CCC2(C)C
150 °C | CC(C)(C)c1cc(CCc2ccccc2NC(=O)NCCCc2cccs2)cc(C(C)(C)C)c1O
154 to 156 °C | CC(C)(C)C(=O)Oc1ccc(C(=O)c2ccc(OC(=O)C(C)(C)C)cc2OC(=O)C(C)(C)C)c(OC(=O)C(C)(C)C)c1
209 to 211 °C | CC(=O)NNc1c(C)cnc2c(NC(=O)c3ccccc3C(F)(F)F)cccc12
96 to 102 °C | Nc1ccc(CC(NC(=O)CCCCCCCCCCNC(=O)C(c2ccccc2)c2ccccc2)c2ccccc2)cc1 (configuration not stated)
87 to 90 °C | O=c1oc(-c2ccccc2)cc(O)c1C(Sc1ccccc1)C1CCCCC1 (configuration not stated)
277 to 278 °C | COc1cccc([C@H]2O[C@H](CC(=O)Nc3nc(C(=O)O)cs3)C(=O)N(CC(C)(C)CO)c3ccc(Cl)cc32)c1OC
123 °C | CN(C)c1ccc(C2OC(C)(C)N=C2c2ccccc2)cc1 (configuration not stated)
263 to 264 °C | COc1cc2c(cc1OC)C(C)(C)Oc1c-2c(OC)cc2oc(C(=O)O)cc(=O)c12
238 °C | O=C(NC1CC1)c1cc(Nc2nc(N3CCCC3c3ccccn3)nc3ccoc23)[nH]n1 (configuration not stated)
84 to 85 °C | Cc1ccc2c(Cl)c(Cl)ccc2n1
215 to 216 °C | CCOc1nn(-c2c(Cl)cc(Cl)cc2Cl)c(N2C(=O)c3ccccc3C2=O)c1C(=O)c1ccccc1Cl
139 to 145 °C | Nc1cccc(Cn2c(-c3ccc(-c4cccnc4)cc3)ccc2-c2ccccc2Cl)n1

melting point | SMILES
112 to 114 °C | COc1ccc(C2(O)CCN(Cc3ccccc3)CC2)cc1OC
135 to 136 °C | COc1ccc(CN2C=CC=C3C2=Nc2cc(C)ccc2S(=O)(=O)N3C)cc1
268 to 269 °C | COc1cccc(C(=O)Nc2nnn[nH]2)c1N
153 to 162 °C | CC(=O)c1cnn(C)c1S(N)(=O)=O
117 to 119 °C | Clc1cccnc1-c1cc(OCCc2ccccn2)c2[nH]nc(Nc3cnccn3)c2c1
166 to 168 °C | O=c1ccn(C2=CCN(Cc3ccc(Br)cc3)C=C2)cc1
112 °C | Cc1nn(-c2cc(OC(F)F)n(C)n2)c(-c2ccc(Cl)cc2)c1CC(=O)O
89 to 90 °C | FC(F)(F)C1(c2ccccc2)c2ccccc2Oc2ccccc21
172 °C | COc1ccc(C(=O)Nc2nc(C(Cl)(Cl)Cl)ns2)cc1
130 to 131 °C | Cc1nccc(CO)c1OCc1ccccc1
97 to 99 °C | CC(C)CNc1c([N+](=O)[O-])cnc2cccnc12
184 to 186 °C | COC(=O)C=CC(=O)OC(=C1C(=O)N(C(N)=O)c2cc(Cl)c(F)cc21)c1cccs1
147 to 150 °C | CCOC(=O)Cc1cn(C)c2cc(C3CC3)nn2c1=O
318 to 319 °C | COc1ccc2c(=O)c3[nH]cc(C(=O)O)c(=O)c3oc2c1
94 to 97 °C | COCCNc1nc(Cc2ccc(OC)c(OC)c2)nc2sc(C#N)c(C)c12
111 to 117 °C | COc1ccc(CNc2nc(C)nc(C)c2Cl)cc1OCc1ccccc1
147 to 148 °C | COc1ccc(C2=NN(c3ccccn3)C(=O)[C@H]3CC=CC[C@@H]23)cc1OC (relative stereo)
> 300 °C | Cc1[nH]c(=O)c(C#N)c2c1CC(c1cccnc1)CC2 (configuration not stated)
209 to 210 °C | CCOC(=O)/C(=N\OC1CCNC1=O)c1csc(NC(c2ccccc2)(c2ccccc2)c2ccccc2)n1 (configuration not stated)
176 to 177 °C | CCOC(=O)c1cn2c3c(cc(CN4CCOCC4)cc3c1=O)OC(F)(F)C2
154 to 156 °C | O=C(OCC1CC(O)C(n2cc(F)c(=O)[nH]c2=O)O1)c1ccccc1 (configuration not stated)
199 to 201 °C | O=C(O)Cc1c(C(=O)c2cccc(Cl)c2)[nH]c2cc(Cl)ccc12
180 to 186 °C | O=C(N[C@@H](Cc1ccccc1)[C@@H](O)[C@H](O)[C@H](Cc1ccccc1)NC(=O)OCc1cccnc1)OCc1cccnc1
158 °C | COc1ccc(Cc2nc3c(c4c2[nH]c2ccccc24)CCC(C)(C)C3)cc1

melting point | SMILES
166 to 170 °C | O=C(CCl)Nc1ccc2c(c1)CC(=O)N2
216 °C | COC1(c2cccc3[nH]ccc23)CCNCC1
141 to 142 °C | CNC(=O)N(N)c1nnc(C(C)(C)C)s1
160 to 162 °C | CC(NC(=O)C(Cc1ccc(OCc2ccccc2)cc1)NC(=O)OC(C)(C)C)C(=O)O (configuration not stated)
160 to 162 °C | N=C(N)N(C[C@H]1CC[C@H](C(=O)Nc2ccnc3[nH]ccc23)CC1)C(=O)OCc1ccccc1
178 to 180 °C | CC(C)c1ccc(Nc2nc(N)nc3c2-c2ccccc2C3)cc1
91 to 92 °C | Cc1cc(COc2nn(Cc3ccccc3)cc2CO)ccc1OCc1nc(-c2ccco2)oc1C
203 °C | COC(=O)C1=C(C)NC(N)=C(C(=O)OC(C)C)C1c1ccccc1[N+](=O)[O-] (configuration not stated)
176 to 177 °C | O=c1oc2ccc(-c3ccc(F)cc3F)cc2c(=O)n1-c1ccc(Cl)cc1F
219 to 220 °C | CCCCc1nc2cnc3ccc(O)cc3c2n1C
189 to 195 °C | C=CCc1c(OC(C)=O)c2cccnc2n(-c2ccccc2)c1=O
202 to 203 °C | CCOC(=O)c1sc(Nc2ccccc2)c2c1CCc1cn[nH]c1-2
164 to 165 °C | CCC(CC)n1cc(Cl)nc(N2CCc3cc(OC)cc(C)c32)c1=O
192 °C | Cc1ccccc1Oc1ccc2ccc(N)nc2n1
147 to 149 °C | O=C(O)[C@@H](CC(=O)N1CCOCC1)NS(=O)(=O)c1ccc(Oc2ccccc2)cc1
97 to 98 °C | COc1c(C)c(C)c2c(c1C)C(c1ccc(CBr)cc1)C(C)(C)O2 (configuration not stated)
106 to 108 °C | CCC(CO)NCC(O)COc1ccccc1C#N (configuration not stated)
139 to 142 °C | CCCCCCCCCCCCCCCCCCC(=O)Nc1ccn(C2OC(CO)C(O)C2O)c(=O)n1 (configuration not stated)
190 to 191 °C | CCCCOc1c(CNC(=O)OC(C)(C)C)n(CC(C)C)c(=O)c2ccc(-n3ccnn3)cc12
193 °C | CCCCCCCCCCCCCCCCCCOc1ccc(C(=O)Nc2ccc(O)cc2)cc1
143 °C | CCCCC(=NNC=O)c1ccncc1

SMILES | melting point
C=CCc1cc(NC(C)=O)ccc1OCC1(O)CN2CCC1CC2 (configuration not stated) | 170 to 172 °C
CN1CC2Cc3ccc(Cl)cc3C(C)(O)C2C1 (configuration not stated) | 125 to 130 °C
O=Cc1c([N+](=O)[O-])ccc(Cl)c1[N+](=O)[O-] | 101 to 102 °C
Cc1ccc(C(=O)c2cc(CCN(C)C)c(O)c(C(C)(C)C)c2)cc1 | 123 to 124 °C
